Results taken from publication PMC13303826, “Nicotinonitrile based dual inhibitors of tubulin and topoisomerase II exhibit potent anticancer activity” (Scientific Reports, 2026).
Like-named read-outs stand apart in the source and are kept apart here.

Columns and labels:
NCI = tested on: NCI; parameters: method as in PMID 8392342; conditions: Fig. 1B; cited from earlier work
MDA-MB-231 = tested on: MDA-MB-231; parameters: method as in ref 5, 7 (CA-4), ref 13-15 (VII); conditions: Fig. 1; 7 (CA-4), ref 13-15 (VII); cited from earlier work
beta-tubulin = assay: Inhibition of tubulin polymerization in MCF-7 cells (beta-tubulin SimpleStep ELISA); type: cell-based, human; conditions: MCF7 cells, concentration not given
Description: Beta-tubulin in vitro simple step ELISA® (Enzyme-Linked Immunosorbent Assay) kit is designed for quantitative measurement of beta-tubulin protein in human cell and tissue homogenate extract samples.
The SimpleStep ELISA® employs an affinity tag labeled capture antibody and a reporter conjugated detector antibody which immunocapture the sample analyte in solution. This entire complex (capture antibody/analyte/detector antibody) is in turn immobilized via immunoaffinity of an anti-tag antibody coating the well. To perform the assay, samples or standards are added to the wells, followed by the antibody mix. After incubation, the wells are washed to remove unbound material. TMB development solution is added and during incubation is catalyzed by horseradish peroxidase (HRP), generating blue coloration. This reaction is then stopped by addition of stop solution completing any color change from blue to yellow. Signal is generated proportionally to the amount of bound analyte and the intensity is measured at 450 nm. Optionally, instead of the endpoint reading, development of TMB can be recorded kinetically at 600 nm. The concentration of beta-tubulin protein in the samples is determined by comparing the optical density (OD) of the samples to the standard curve. Each experiment was repeated two times (Table 2).

HeLa = conditions: Fig. 1, cited from earlier work
BJ1 normal cells = assay: LDH release cytotoxicity assay, normal skin fibroblasts BJ1; type: cell-based, human; conditions: non-tumor BJ1 fibroblasts
Method: (§1) HepG2 (Human liver carcinoma), HCT116 (human colorectal carcinoma), MCF7 (human breast adenocarcinoma), and the normal human skin fibroblast (BJ-1) cell lines were purchased from the american type culture collection (Rockville, MD, USA) and maintained in RPMI-1640 medium which was supplemented with 10% heat-inactivated FBS, 100U/ml penicillin and 100U/ml streptomycin. The cells were grown at 37 °C in a humidified atmosphere of 5% CO2. All experiments were conducted thrice in triplicate (n = 3). All the values were represented as means ± SD. Significant differences between the means of parameters as well as IC50s were determined by probit analysis using SPSS software program (SPSS Inc., Chicago, IL).
(§2) To determine the effect of each synthesized compound on membrane permeability in HepG2, MCF-7 and HCT116 cancer cell lines as well as BJ-1 normal cell line, a lactate dehydrogenase (LDH) release assay was used[29]–[33]. The cells were seeded in 24-well culture plates at a density of 1 × 10^4 cells/well in 500 µL volume and allowed to grow for 18 h before treatment. After treatment with a series of different concentrations of each compound or DOX (positive control), the plates were incubated for 48 h. Then, the supernatant (40 µL) was transferred to a new 96 well to determine LDH release and 6% triton X-100 (40 µL) was added to the original plate for determination of total LDH. An aliquot of 0.1 M potassium phosphate buffer (100 µL, pH 7.5) containing 4.6 mM pyruvic acid was mixed to the supernatant using repeated pipetting. Then, 0.1 M potassium phosphate buffer (100 µL, pH 7.5) containing 0.4 mg/mL reduced β-NADH was added to the wells. The kinetic changes were read for 1 min using ELISA microplate reader in absorbance at wavelength 340 nm. This procedure was repeated with 40 µL of the total cell lysate to determine total LDH. The percentage of LDH release was determined by dividing the LDH released into the media by the total LDH following cell lysis in the same well. The cell Passage numbers for MCF 7 = P13, Hep G2 = P15, HCT 116 = P 9.
(§3) All experiments were conducted in triplicate (n = 3). All the values were represented as mean ± SD. Significant differences between the means of parameters as well as IC50s were determined by probit analysis using SPSS software program (SPSS Inc., Chicago, IL).

MCF7 cells [1] = assay: LDH release cytotoxicity assay, MCF7; type: cell-based; conditions: Homo sapiens, 48 h, mean ± SD, read-out: In vitro cytotoxicity IC50 µM ± SD, MCF7
Method: as §1, §2, §3

Topo II = assay: Inhibition of topoisomerase II in MCF-7 cells (TOP2B sandwich ELISA); type: cell-based, human; conditions: MCF7 cells, concentration not given
Method: Mouse TOP2B/Topoisomerase II Beta ELISAKit (Sandwich ELISA) is designed for the quantitative measurement of Topo II enzyme.
This assay is based on the sandwich ELISA principle. Each well of the supplied microtiter plate has been pre-coated with a target specific capture antibody. Standards or samples are added to the wells, and the target antigen binds to the capture antibody. Unbound standard or sample is washed away. A biotin-conjugated detection antibody is then added which binds to the captured antigen. Unbound detection antibody is washed away. An avidin-horseradish peroxidase (HRP) conjugate is then added which binds to the biotin. Unbound avidin-HRP conjugate is washed away. A TMB substrate is then added which reacts with the HRP enzyme resulting in color development. A sulfuric acid stop solution is added to terminate color development reaction and then the optical density (OD) of the well is measured at a wavelength of 450 nm ± 2 nm. An OD standard curve is generated using known antigen concentrations; the OD of an unknown sample can then be compared to the standard curve to determine its antigen concentration. Each experiment was repeated two times (Table 3).

HCT116 cells = assay: LDH release cytotoxicity assay, HCT116; type: cell-based; conditions: Homo sapiens, HCT-116, 48 h, mean ± SD, read-out: In vitro cytotoxicity IC50 µM ± SD, HCT116
Method: as §1, §2, §3

HepG2 cells = assay: LDH release cytotoxicity assay, HepG2; type: cell-based; conditions: Homo sapiens, 48 h, mean ± SD, read-out: In vitro cytotoxicity IC50 µM ± SD, HepG2
Method: as §1, §2, §3

MCF7 cells [2] = assay: Apoptosis and necrosis analysis by annexin V-FITC/PI staining; type: cell-based, human; conditions: at IC50 (2.4 µM), 48 h
Description: Annexin V apoptosis detection kit is used for analyzing apoptosis and necrosis for active compounds 20 and 26 in MCF7 cells using annexin V-FITC/PI dual staining followed by flow cytometry quantification and fluorescence microscopy detection.
Detection is based on the observation that soon after initiating apoptosis, cells translocate the membrane phosphatidylserine (PS) from the inner face of the plasma membrane to the cell surface. Once on the cell surface, PS can be easily detected by staining with a fluorescent conjugate of annexin V, a protein that has a high affinity for PS. Detection can be analyzed by flow cytometry or/and by fluorescence microscopy. The kit can differentiate between apoptosis and necrosis when performing both annexin V-FITC and PI staining. Assay is summarized as first, induce apoptosis by desired method, collect 1–5 × 10^5 cells by centrifugation, resuspend cells in 500 µl of 1× binding buffer, add 5 µl of annexin V-FITC and 5 µl of propidium iodide and finally incubate at room temperature for 5 min in the dark. After that, analyze annexin V-FITC binding by flow cytometry (Ex = 488 nm; Em = 530 nm) using FITC signal detector (usually FL1) and PI staining by the phycoerythrin emission signal detector (usually FL2) then, observe the cells under a fluorescence microscope using a dual filter set for FITC & rhodamine. Cells that have bound annexin V-FITC will show green staining in the plasma membrane. Cells that have lost membrane integrity will show red staining (PI) throughout the nucleus and a halo of green staining (FITC) on the cell surface.

MCF7 cells [3] = assay: Propidium iodide flow cytometry cell cycle analysis; type: cell-based, human; conditions: compound at 2.4 µM
Method: Propidium iodide flow cytometry kit (ab139418) is designed for quantitative DNA content analysis in tissue culture cells, so we performed propidium iodide cell cycle analysis for active compounds 20 and 26 using MCF-7 cell line. Propidium iodide staining of DNA is the classic means of cell cycle analysis. The staining procedure takes less than 1 h of total processing time and cells fixed in ethanol are stable for at least several weeks at 4 °C.
Propidium iodide is a fluorescent molecule that binds nucleic acid with little or no sequence preference. Because propidium iodide binds RNA as well as DNA, RNaseA (ribonuclease A) is included in this kit to digest cellular RNA and thus decrease background RNA staining from the experiment. Since propidium iodide is membrane impermeant, ethanol is used to both fix and permeabilize cells. A flow cytometer is required for quantitative analysis. First, fix MCF-7 cells in 66% ethanol, store at + 4 °C for 2 h to 4 weeks and rehydrate cells in PBS. Finally, stain cells with propidium iodide then add RNase for 30 min. Collect propidium iodide fluorescence intensity on FL2 of a flow cytometer and […] laser excitation. A useful way to display propidium iodide data is on a histogram with the cell count on the y-axis and the propidium iodide fluorescence intensity on the x-axis.

HepG2 = tested on: HepG2; parameters: method as in PMID 31278032; conditions: Fig. 1A; cited from earlier work
colon-26 = tested on: colon-26; parameters: method as in PMID 24669888, PMID 30111667, PMID 9873694; conditions: Fig. 1C; cited from earlier work
A549 = tested on: A549; parameters: method as in PMID 33465263; conditions: Fig. 1A; cited from earlier work
MCF-7 = tested on: MCF-7; parameters: method as in ref 8 (podophyllotoxin), ref 13-15 (VIII); conditions: Fig. 1; ref 8 (podophyllotoxin), ref 13-15 (VIII); cited from earlier work
HL-60 = tested on: HL-60; parameters: method as in ref 4, 12 (YCH337), ref 13-15 (VIII); conditions: Fig. 1; 12 (YCH337), ref 13-15 (VIII); cited from earlier work
HT-29 = tested on: HT-29; parameters: method as in PMID 25840421, PMID 39533473; conditions: Fig. 1B; cited from earlier work
[4] = ref 10 (etoposide), 12 (YCH337)

COc1cc([C@@H]2c3[nH]c4ccccc4c3C[C@H]3COC(=O)N32)cc(OC)c1O [Azatoxin (NSC 640737), azatoxin]
IC50 (NCI): 130 nM

COc1ccc(/C=C\c2cc(OC)c(OC)c(OC)c2)cc1O [CA4, Combretastatin A4]
IC50 (MDA-MB-231): 2.8 nM
tubulin polymerization % inhibition (beta-tubulin): 72.1%
IC50 (HeLa; 7 (CA-4), ref 13-15 (VII)): 1 nM

COc1cc(-c2cc(-c3cc(OC)c(OC)c(OC)c3)c(C#N)c(Cl)n2)cc(OC)c1OC [Compound 20, 2-Chloro-4,6-bis(3,4,5-trimethoxyphenyl)nicotinonitrile]
Cytotoxicity / selectivity toward BJ1 normal cells (in words) (BJ1 normal cells): good selectivity
IC50 (MCF7 cells [1]): 2.4 ± 0.1 µM
Topo II % inhibition (Topo II): 70.3%
tubulin polymerization % inhibition (beta-tubulin): 74.7%
IC50 (HCT116 cells): 34.4 ± 3.2 µM
IC50 (HepG2 cells): 6.1 ± 0.5 µM
Apoptosis Early (MCF7 cells [2]): 11.91%
Apoptosis Late (MCF7 cells [2]): 22.63%
Apoptosis Total (MCF7 cells [2]): 38.41%
Necrosis (MCF7 cells [2]): 3.87%
%G0-G1 (MCF7 cells [3]): 39.69%
%G2/M (MCF7 cells [3]): 43.3%
%S (MCF7 cells [3]): 17.01%

COc1ccc(-c2cc(-c3cc(OC)c(OC)c(OC)c3)c(C#N)c3nnnn23)cc1 [Compound 26, 5-(4-methoxyphenyl)-7-(3,4,5-trimethoxyphenyl)tetrazolo[1,5-a]pyridine-8-carbonitrile]
Cytotoxicity / selectivity toward BJ1 normal cells (in words) (BJ1 normal cells): good selectivity
IC50 (MCF7 cells [1]): 2.4 ± 0.1 µM
Topo II % inhibition (Topo II): 43.7%
tubulin polymerization % inhibition (beta-tubulin): 75%
IC50 (HCT116 cells): 63.4 ± 5.3 µM
IC50 (HepG2 cells): 6.3 ± 0.3 µM
Apoptosis Early (MCF7 cells [2]): 7.58%
Apoptosis Late (MCF7 cells [2]): 28.16%
Apoptosis Total (MCF7 cells [2]): 41.26%
Necrosis (MCF7 cells [2]): 5.51%
%G0-G1 (MCF7 cells [3]): 35.64%
%G2/M (MCF7 cells [3]): 50.69%
%S (MCF7 cells [3]): 13.67%

COc1ccc(-c2cc(-c3cc(OC)cc(OC)c3)c(C#N)c(N=P(c3ccccc3)(c3ccccc3)c3ccccc3)n2)cc1 [Compound 38, 4-(3,5-Dimethoxyphenyl)-6-(4-methoxyphenyl)-2-((triphenyl-λ^5-phosphaneylidene)amino)-nicotinonitrile]
Cytotoxicity / selectivity toward BJ1 normal cells (in words) (BJ1 normal cells): good selectivity
IC50 (MCF7 cells [1]): 2.5 ± 0.1 µM
tubulin polymerization % inhibition (beta-tubulin): 71.7%
IC50 (HCT116 cells): 31.5 ± 3.2 µM
IC50 (HepG2 cells): 12.2 ± 1.1 µM

Cc1cc(-c2ccco2)c(C#N)c(N=P(c2ccccc2)(c2ccccc2)c2ccccc2)n1 [Compound 41, 4-(Furan-2-yl)-6-methyl-2-((triphenyl-λ^5-phosphaneylidene)amino)nicotinonitrile]
Cytotoxicity / selectivity toward BJ1 normal cells (in words) (BJ1 normal cells): good selectivity
IC50 (MCF7 cells [1]): 2.4 ± 0.1 µM
tubulin polymerization % inhibition (beta-tubulin): 61.2%
IC50 (HCT116 cells): 38.2 ± 2.8 µM
IC50 (HepG2 cells): 27.3 ± 2.3 µM

COc1cc([C@@H]2c3cc4c(cc3[C@@H](O[C@@H]3O[C@@H]5CO[C@@H](C)O[C@H]5[C@H](O)[C@H]3O)[C@H]3COC(=O)[C@H]23)OCO4)cc(OC)c1O [Etoposide]
IC50 (HepG2): 10500 nM
IC50 (HeLa; [4]): 12200 nM

COc1ccc(-c2nnnn2-c2cc(OC)c(OC)c(OC)c2)cc1N [IX]
IC50 (colon-26): 7.2 nM

COc1cc([C@@H]2c3cc4c(cc3[C@H](O)[C@H]3COC(=O)[C@H]23)OCO4)cc(OC)c1OC [Podophyllotoxin]
IC50 (A549): 1900 nM
IC50 (MCF-7): 2210 nM

COc1ccc(-c2cc(-c3cc(OC)c(OC)c(OC)c3)c(C#N)c(=O)[nH]2)cc1 [VIII]
IC50 (HL-60): 470 nM
IC50 (MCF-7): 180 nM

COc1ccc(-c2cccc(-c3ccc(OC)cc3OC)n2)cc1 [VII]
IC50 (MDA-MB-231): 3.1 nM
IC50 (HeLa; 7 (CA-4), ref 13-15 (VII)): 3.8 nM

COC(=O)C1C(c2cc(OC)c(OC)c(OC)c2)c2cc3c(cc2C(n2cc(-c4ccc(F)cc4)nn2)C1C=O)OCO3 (stereo not shown) [VI]
IC50 (HT-29): 40 nM

COc1ccc(O)c(C(=O)c2cnc3[nH]c4ccccc4c3c2)c1 [YCH337]
IC50 (HL-60): 210 nM
IC50 (HeLa; [4]): 60 nM
